Test results taken from ChEMBL document CHEMBL2163313, “Shape-based reprofiling of FDA-approved drugs for the H₁ histamine receptor” (J Med Chem, 2012).
Active and inactive are the calls of the source. No cut-off for these calls is given here.

Columns and labels:
HeLa = test: Antagonist activity at P2Y receptor in human HeLa cells assessed as inhibition of ATP-induced Ca2+ release at 100 uM by using fura-2AM-based fluorescence assay; type: functional, cell-based
Histamine H1 receptor [1] = target: T1, Histamine H1 receptor (Homo sapiens, UniProt P35367); test: Antagonist activity at histamine H1 receptor in human HeLa cells assessed as inhibition of histamine-induced Ca2+ release at 100 uM by using fura-2AM-based fluorescence assay; type: functional, cell-based
T1 sequence (P35367 whole entry): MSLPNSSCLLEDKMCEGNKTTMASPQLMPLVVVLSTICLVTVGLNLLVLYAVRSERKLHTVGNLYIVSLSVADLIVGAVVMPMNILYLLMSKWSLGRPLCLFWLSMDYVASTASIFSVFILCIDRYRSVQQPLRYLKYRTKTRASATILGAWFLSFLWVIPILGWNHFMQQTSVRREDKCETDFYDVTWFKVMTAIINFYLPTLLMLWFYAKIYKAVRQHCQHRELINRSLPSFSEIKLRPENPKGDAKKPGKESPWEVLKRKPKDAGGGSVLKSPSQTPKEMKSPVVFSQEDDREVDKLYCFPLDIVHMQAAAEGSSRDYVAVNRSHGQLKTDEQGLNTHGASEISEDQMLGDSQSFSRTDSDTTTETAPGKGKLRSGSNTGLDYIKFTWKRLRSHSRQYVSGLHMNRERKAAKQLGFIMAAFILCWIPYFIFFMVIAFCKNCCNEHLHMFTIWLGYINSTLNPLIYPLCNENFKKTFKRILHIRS

Histamine H1 receptor [2] = target: T1, Histamine H1 receptor; test: Antagonist activity at H1 receptor in human HeLa cells assessed as inhibition of histamine-induced Ca2+ release by using fura-2AM-based fluorescence assay; type: functional, cell-based
Histamine H1 receptor [3] = target: Histamine H1 receptor (Rattus norvegicus, UniProt P31390); type: cell membranes, Sprague-Dawley, Brain, Membrane
Histamine H1 receptor (Rattus norvegicus, UniProt P31390), sequence (P31390 whole entry): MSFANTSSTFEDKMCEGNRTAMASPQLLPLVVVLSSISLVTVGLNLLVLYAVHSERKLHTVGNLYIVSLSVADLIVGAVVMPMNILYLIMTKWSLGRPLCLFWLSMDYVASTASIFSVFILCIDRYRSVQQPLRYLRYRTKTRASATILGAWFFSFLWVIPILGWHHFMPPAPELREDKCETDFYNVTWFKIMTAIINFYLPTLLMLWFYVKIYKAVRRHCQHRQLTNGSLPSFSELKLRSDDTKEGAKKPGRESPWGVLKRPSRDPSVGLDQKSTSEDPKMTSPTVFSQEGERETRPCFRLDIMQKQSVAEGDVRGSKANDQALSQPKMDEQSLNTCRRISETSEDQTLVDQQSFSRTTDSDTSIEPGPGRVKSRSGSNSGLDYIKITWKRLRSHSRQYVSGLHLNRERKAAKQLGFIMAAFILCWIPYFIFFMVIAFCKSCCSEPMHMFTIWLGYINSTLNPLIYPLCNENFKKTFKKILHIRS

SMILES | inhibition (HeLa) | inhibition (Histamine H1 receptor [1]) | IC50 (Histamine H1 receptor [2]) [µM] | IC50 (Histamine H1 receptor [3]) [µM]
NC(=O)OCC(COC(N)=O)c1ccccc1 | inactive | – | – | –
OC(CCN1CCCCC1)(c1ccccc1)C1CC2C=CC1C2 (centres undefined) | Active | Active | – | –
CCN(CC)CCOC(=O)C(c1ccccc1)c1ccccc1 [ADIPHENINE] | – | – | 112 | 17
CN(C)CC/C=C1/c2ccccc2Sc2ccc(Cl)cc21 [CHLORPROTHIXENE] | – | – | – | 0.00107
CN1[C@@H](CC(=O)c2ccccc2)CCC[C@H]1C[C@H](O)c1ccccc1 [LOBELINE] | – | – | 44.7 | 11.2
OC(CCN1CCCC1)(c1ccccc1)C1CCCCC1 (centres undefined) [PROCYCLIDINE] | – | – | – | 6.76
